Laboratory results from article PMC3094704, “S-Petasin, the Main Sesquiterpene of Petasites formosanus, Inhibits Phosphodiesterase Activity and Suppresses Ovalbumin-Induced Airway Hyperresponsiveness” (Evidence-based Complementary and Alternative Medicine : eCAM, 2011).
pIC50: −log10 of the molar value.

Assays:
[1] = system: OVA-sensitized and challenged BALB/c mice; test: IgG2a and IgE in serum and BALF (ELISA); assay type: in vivo, mouse
Method: Ten female BABL/c mice in each group were sensitized by an intraperitoneal (i.p.) injection of 20 μg of OVA emulsified in 2.25 mg aluminum hydroxide gel in a total volume of 100 μL on days 0 and 14. The mice were challenged via the airway by 1% OVA in saline for 30 min on Days 28, 29 and 30 by ultrasonic nebulization. Six weeks after the last of three primary OVA challenges, the mice were exposed to 1% OVA for 30 min by nebulization as a secondary challenge. AHR was assessed on Day 74 (48 h after 1% OVA provocation) in each group. […] For comparison, sham-treated mice were sensitized but challenged with saline instead of 1% OVA (non-challenged). The vehicle, a mixture of alcohol : DMSO : 30% HPβCD : saline (0.5 : 0.5 : 1 : 8 , v/v), or S-petasin was injected at a volume of 0.01 mL/g of body weight. AHR was measured in unrestrained animals by barometric plethysmography using a whole-body plethysmograph (WBP) and analyzed using software of Life Science Suite P3 Analysis Modules (Gould, LDS Test and Measurement LLC, Valley View, OH, USA). The mice were placed into the main chamber of the WBP, and the baseline enhanced pause (P enh) value was determined. Then the mice were nebulized first with phosphate-buffered saline (PBS), and subsequently with increasing doses (6.25–50 mg/mL) of MCh for 3 min for each nebulization, followed by readings of breathing parameters for 3 min after each nebulization with determination of P enh values. Twenty-four hours after the P enh determination, these mice were anesthetized with pentobarbital (50 mg/kg, i.p.), and lavaged via a tracheal tube with PBS (1 × 1.0 mL, 37°C). After lavage, blood was collected from the jugular vein and allowed to sit so that it would coagulate. The collected bronchoalveolar lavage fluid (BALF) and coagulated blood were, respectively, centrifuged at 630 g for 7 min and at 3700 g for 10 min at 4°C, respectively. After centrifugation, the supernatants of BALF and serum were stored at −20°C until the determinations of cytokines, including interleukin (IL)-2, IL-4, IL-5, tumor necrosis factor (TNF)-α and interferon (IFN)-γ by flow cytometric methods using mouse Th1/Th2 cytokine CBA kits, of total immunoglobulin E (IgE), and of total IgG2a using enzyme-linked immunosorbent assay (ELISA) kits (Pharmingen, San Diego, CA, USA) according to the respective recommendations of the manufacturer. OVA-specific IgE was measured as described previously with some modifications. Wells were coated with 100 μL of OVA (20 μg/mL) instead of the capture antibody. Levels are expressed in arbitrary units, where one arbitrary unit equals the optical density of the sample divided by the optical density of unchallenged mouse serum or BALF (standard). The pellet from BALF was re-suspended in ACK lysing buffer (1.658 g NH4Cl, 0.2 g KHCO3 and 1.44 mg EDTA in 200 mL of water) to lyse the residual erythrocytes in each sample. The number of inflammatory cells was counted using a hemocytometer (Hausser Scientific, Horsham, PA, USA). Cytospun slides were stained and differentiated in a blinded fashion by counting at least 100 cells under light microscopy.

[2] = system: cAMP-phosphodiesterase (PDE); parameters: method as in PMID 11345692; settings: cited from earlier work
[3] = system: PDE1; test: Inhibition of PDE1 activity (two-step radioenzymatic assay); assay type: biochemical, guinea pig; settings: mean ± SEM (n); read-out: IC50 on PDE isozyme 1
Method: Activities of PDE1–5, partially separated from guinea pig lungs and hearts according to the method described by Ko et al., were measured with a two-step procedure according to the method of Thompson and Appleman, using cAMP with [^3H]-cAMP or cGMP with [^3H]-cGMP as substrates. The enzyme pμreparation (25 μL) was incubated for 30 min at 37°C in a total assay volume of […] containing 50 mM Tris-HCl (pH 7.4), 3 mM MgCl2, 1 mM dithiothreitol, 0.05% BSA, 1 μM cAMP with 0.2 μCi [^3H]-cAMP as a substrate alone or in the presence of 0.1 units calmodulin with 10 μM CaCl2 or 5 μM cGMP, and 1 μM cGMP with 0.2 μCi [^3H]-cGMP as another substrate alone or in the presence of 0.1 units calmodulin with 10 μM CaCl2. In tests of enzyme inhibition, the reaction mixture contained 10 μL of vehicle or inhibitors, at various concentrations of S-petasin or selective PDE1–5 inhibitors, such as vinpocetin [22], EHNA [23], milrinone, Ro 20-1724 [25] and zaprinast, as reference drugs. The reagents and homogenate were mixed on ice, and the reaction was initiated by transferring the mixture to a water bath at 37°C. Following a 30-min incubation, the reaction was stopped by transferring the reaction vessel to a bath of boiling water for 3 min. After cooling on ice, 20 μL of a 1 mg/mL solution of C. atrox snake venom was added to the reaction mixture, and the mixture was incubated at 37°C for 10 min. […]

[4] = system: isolated sensitized guinea pig trachea; test: OVA-induced tracheal contractions and baseline tension in vitro
Method: Male Hartley guinea pigs (500–600 g) were sensitized by intramuscular injections of 0.7 mL of 5% (w/v) OVA in saline on Days 1, 4 and 43, and in adjuvant on Days 25 and 39 into each thigh, according to a method described by Underwood et al. and modified by us. Three days after the last injection, sensitized guinea pigs were sacrificed by cervical dislocation, and their tracheas removed. Each trachea was cut into six segments. Each segment consisted of three cartilage rings. All segments were cut open opposite the trachealis. […] Tissues were suspended in normal Krebs solution under an initial tension of 1.5 g and allowed to equilibrate for at least 1 h with washing at 15-min intervals. After the tissues were precontracted with KCl (60 mM) and washed with normal Krebs solution, OVA (0.1–100 μg/mL) was cumulatively added, and contractions were allowed to reach a steady state at each concentration. […] Therefore, the log concentration-response curves of OVA were constructed in the absence and presence of S-petasin. The tension of the precontraction induced by KCl was set as 100%.

[5] = system: guinea pig trachea; settings: precontracted by histamine, carbachol (CCh), KCl or leukotriene (LT) D4; read-out: IC50 in relaxing guinea pig trachea; cited from earlier work

C=C(C)[C@@H]1C[C@@]2(C)C(=CC1=O)CC[C@@H](OC(=O)/C=C\SC)[C@@H]2C [S-Petasin]
Reduction of total IgG2a level in the serum ([1]; 30 μmol/kg s.c.): significantly reversed
Enhancement of total IgE in the BALF ([1]; 30 μmol/kg s.c., exception at 10 μmol/kg): dose-dependently and significantly suppressed
Enhancement of OVA-specific IgE in the BALF ([1]; 10–30 μmol/kg s.c.): dose-dependently and significantly suppressed
Enhancement of OVA-specific IgE in the serum ([1]; 10–30 μmol/kg s.c.): dose-dependently and significantly suppressed
Enhancement of total IgE in the serum ([1]; 10–30 μmol/kg s.c.): dose-dependently and significantly suppressed
Inhibition of cAMP-phosphodiesterase (PDE) activity [2]: inhibited
pIC50 [3]: < 4.00
OVA (100 μg/mL)-induced contractions ([4]; 30–100 μM, 15 min preincubation): did not significantly inhibit
Baseline tension ([4]; 30–300 μM): concentration-dependently and significantly relaxed
pIC50 [5]: > 5.00
